Results: US9758492B2, “IDO inhibitors” (Bristol-Myers Squibb Company, priority 2013, dated 2017)
pIC50: −log10 of the molar value.

Each compound was assayed against IDO (Homo sapiens, UniProt P14902) (assay: LLE_IDO_ABS_DR (IDO assay)).
Sequence of IDO (P14902 whole entry): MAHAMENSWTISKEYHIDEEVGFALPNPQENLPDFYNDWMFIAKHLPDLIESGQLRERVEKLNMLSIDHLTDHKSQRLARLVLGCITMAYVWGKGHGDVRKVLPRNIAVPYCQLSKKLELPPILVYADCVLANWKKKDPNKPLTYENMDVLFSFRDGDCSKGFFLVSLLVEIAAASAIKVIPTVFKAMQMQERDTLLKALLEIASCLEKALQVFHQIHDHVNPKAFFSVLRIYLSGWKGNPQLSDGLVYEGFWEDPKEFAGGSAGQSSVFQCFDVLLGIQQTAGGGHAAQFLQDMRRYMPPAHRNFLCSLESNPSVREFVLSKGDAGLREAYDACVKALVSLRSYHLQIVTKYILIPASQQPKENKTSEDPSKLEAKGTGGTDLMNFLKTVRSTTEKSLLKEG

Going from `Cc1ccc(NC(=O)Nc2cc(-c3ccccc3C(=O)O)ccc2N(CCC(F)(F)F)Cc2cccc(Cl)c2)cc1` [Example 11, 4′-((3-Chlorobenzyl)(3,3,3-trifluoropropyl)amino)-3′-(3-(p-tolyl)ureido)-[1,1′-biphenyl]-2-carboxylic acid] to `CCCN(Cc1ccccc1)c1ccc(-c2ccccc2C(=O)O)cc1NC(=O)Nc1ccc(C)cc1` [Example 187, 4′-(benzyl(propyl)amino)-3′-(3-(p-tolyl)ureido)-[1,1′-biphenyl]-2-carboxylic acid], the pIC50 rises from 6.60 to 7.70 (1.10 log units).

Compared with `CC(C)CN(CC(C)C)c1ccc(-c2ccccc2-c2nnn[nH]2)cc1NC(=O)Nc1ccc2sccc2c1` [Example 259, 1-(benzo[b]thiophen-5-yl)-3-(4-(diisobutylamino)-2′-(1H-tetrazol-5-yl)-[1,1′-biphenyl]-3-yl)urea], `CC(C)CN(CC(C)C)c1ccc(-c2ccccc2-c2nnn[nH]2)cc1NC(=O)Nc1cccc(S(N)(=O)=O)c1` [Example 266, 3-(3-(4-(diisobutylamino)-2′-(1H-tetrazol-5-yl)-[1,1′-biphenyl]-3-yl)ureido) benzenesulfonamide] is 3.26 log units lower in pIC50: 8.61 for the first, 5.35 for the second.

First: CN(c1ccc(-c2ccccc2C(=O)O)cc1NC(=O)Nc1ccccc1F)c1ccccc1C(C)(C)C [Example 480]
Second: CN(c1ccc(-c2ccccc2-c2nnn[nH]2)cc1NC(=O)Nc1ccccc1F)c1ccccc1C(C)(C)C [Example 207, 1-(4-((2-(tert-butyl)phenyl) (methyl)amino)-2′-(1H-tetrazol-5-yl)-[1,1′-biphenyl]-3-yl)-3-(2-fluorophenyl)urea]
The pIC50 of the first is 1.15 log units lower: 5.74 for the first, 6.89 for the second. The second is the more potent here.

First: CC(C)CN(CC(C)C)c1ccc(-c2ccccc2-c2nnn[nH]2)cc1NC(=O)Nc1ccccc1C1CC1 [Example 274, 1-(2-cyclopropylphenyl)-3-(4-(diisobutylamino)-2′-(1H-tetrazol-5-yl)-[1,1′-biphenyl]-3-yl)urea]
Second: CC(C)CN(CC(C)C)c1ccc(-c2ccccc2-c2nnn[nH]2)cc1NC(=O)Nc1ccccc1-n1cncn1 [Example 256, 1-(2-(1H-1,2,4-triazol-1-yl)phenyl)-3-(4-(diisobutylamino)-2′-(1H-tetrazol-5-yl)-[1,1′-biphenyl]-3-yl)urea]
The pIC50 of the first is 0.96 log units higher: 6.34 for the first, 5.38 for the second.

First: O=C(Nc1cc(-c2ccccc2-c2nnn[nH]2)ccc1N(CCc1ccccc1)CCC(F)(F)F)Nc1ccccc1C(F)(F)F [Example 295, 1-(4-(Phenethyl(3,3,3-trifluoropropyl)amino)-2′-(1H-tetrazol-5-yl)biphenyl-3-yl)-3-(2-(trifluoromethyl)phenyl)urea]
Second: Cc1ccc(NC(=O)Nc2cc(-c3ccccc3-c3nnn[nH]3)ccc2N(CCC(F)(F)F)Cc2ccc(C(F)(F)F)cc2)cc1 [Example 329, 1-(2′-(1H-tetrazol-5-yl)-4-((4-(trifluoromethyl)benzyl)(3,3,3-trifluoropropyl)amino)-[1,1′-biphenyl]-3-yl)-3-(p-tolyl)urea]
The pIC50 of the first is 1.87 log units lower: 6.52 for the first, 8.39 for the second. The second is the more potent here.

First: CCCCN(CCCC)c1ccc(-c2ccccc2C(=O)O)cc1NC(=O)Nc1ccc(C)cc1 [Example 89, 4′-(dibutylamino)-3′-(3-p-tolylureido) biphenyl-2-carboxylic acid]
Second: CCCCN(c1ccc(-c2ccccc2C(=O)O)cc1NC(=O)Nc1ccc(C)cc1)C1CCCCC1 [Example 177, 4′-(butyl(cyclohexyl)amino)-3′-(3-(p-tolyl)ureido)-[1,1′-biphenyl]-2-carboxylic acid]
The pIC50 of the first is 0.72 log units lower: 7.30 for the first, 8.02 for the second. The second is the more potent here.

First: Cc1ccc(NC(=O)Nc2cc(-c3cc(F)ccc3C(=O)O)ccc2N(CCC(C)(C)O)Cc2ccc(Cl)cc2)cc1 [Example 374]
Second: Cc1ccc(NC(=O)Nc2cc(-c3cc(F)ccc3C(=O)O)ccc2N(CCC(F)(F)F)CC(C)C)cc1 [Example 200, 5-fluoro-4′-(isobutyl (3,3,3-trifluoropropyl)amino)-3′-(3-(p-tolyl)ureido)-[1,1′-biphenyl]-2-carboxylic acid]
The pIC50 of the first is 1.80 log units lower: 5.16 for the first, 6.96 for the second. The second is the more potent here.

First: Cc1ccc(NC(=O)Nc2cc(-c3ccccc3NS(=O)(=O)C(F)(F)F)ccc2N(CC(C)C)CC(C)C)cc1 [Example 4, N-(4′-(Diisobutylamino)-3′-(3-p-tolylureido)biphenyl-2-yl)-1,1,1-trifluoromethanesulfonamide]
Second: Cc1ccc(NC(=O)Nc2cc(-c3ccccc3NS(C)(=O)=O)ccc2N(CC(C)C)CC(C)C)cc1 [Example 74, N-(4′-(diisobutylamino)-3′-(3-p-tolylureido)biphenyl-2-yl) methanesulfonamide]
The pIC50 of the first is 1.86 log units higher: 7.10 for the first, 5.24 for the second.

Compared with `Cc1noc(C2CCN(c3ccc(-c4ccccc4-c4nnn[nH]4)cc3NC(=O)Nc3ccc(C(F)(F)F)cc3F)C2)n1` (centres unmarked) [Example 390], `O=C(Nc1ccc(OC(F)(F)F)cc1)Nc1cc(-c2ccccc2-c2nnn[nH]2)ccc1N1CCC(F)(F)C1` [Example 316, 1-(4-(3,3-difluoropyrrolidin-1-yl)-2′-(1H-tetrazol-5-yl)-[1,1′-biphenyl]-3-yl)-3-(4-(trifluoromethoxy)phenyl)urea] is 0.69 log units lower in pIC50: 5.80 for the first, 5.11 for the second. The first is the more potent here.

Going from `CC(C)CN(CC(C)C)c1ccc(-c2cc(F)ccc2C(=O)O)cc1NC(=O)Nc1ccc(F)cc1F` [Example 146, 3′-(3-(2,4-difluorophenyl)ureido)-4′-(diisobutylamino)-5-fluorobiphenyl-2-carboxylic acid] to `CC(C)CN(CCC(C)C(F)(F)F)c1ccc(-c2cc(F)ccc2C(=O)O)cc1NC(=O)Nc1ccccc1F` (centres unmarked) [Example 204, 5-fluoro-3′-(3-(2-fluorophenyl)ureido)-4′-(isobutyl(4,4,4-trifluoro-3-methylbutyl)amino)-[1,1′-biphenyl]-2-carboxylic acid], the pIC50 rises from 8.00 to 8.28 (0.28 log units).

Compared with `Cc1ccc(NC(=O)Nc2cc(-c3ccccc3C(=O)O)ccc2N(Cc2ccccc2)CC(F)F)cc1` [Example 20, 4′-(Benzyl(2,2-difluoroethyl)amino)-3′-(3-(p-tolyl)ureido)-[1,1′-biphenyl]-2-carboxylic acid], `Cc1ccc(NC(=O)Nc2cc(-c3ccccc3C(=O)O)ccc2N(C)CC(C)C)cc1` [Example 180, 4′-(isobutyl(methyl)amino)-3′-(3-(p-tolyl)ureido)-[1,1′-biphenyl]-2-carboxylic acid] is 0.25 log units lower in pIC50: 6.89 for the first, 6.64 for the second. The first is the more potent here.

Compared with `COc1ccc(-c2ccc(N(C)C3CCCCCC3)c(NC(=O)Nc3ccc(C)cc3)c2)cc1C(=O)O` [Example 78, 4′-(cycloheptyl(methyl)amino)-4-methoxy-3′-(3-p-tolylureido)biphenyl-3-carboxylic acid], `Cc1ccc(NC(=O)Nc2cc(-c3ccc(Cl)cc3C(=O)O)ccc2N(CC(C)C)C2CCCCC2)cc1` [Example 120, 4-chloro-4′-(cyclohexyl(isobutyl)amino)-3′-(3-p-tolylureido)biphenyl-2-carboxylic acid] is 1.80 log units higher in pIC50: 5.72 for the first, 7.52 for the second.

`[2H]C([2H])(C(C)C)N(c1ccc(-c2sccc2C(=O)O)cc1NC(=O)Nc1ccccc1F)C1CCCCC1` [Example 36, 2-(4-(Cyclohexyl(1,1-dideutero-2-methylpropyl)amino)-3-(3-(2-fluorophenyl)ureido)phenyl)thiophene-3-carboxylic acid] and `[2H]C([2H])(C(C)C)N(c1ccc(-c2cc(F)ccc2C(=O)O)cc1NC(=O)Nc1ccccc1F)C1CCCCC1` [Example 34, 4′-(Cyclohexyl(1,1-dideutero-2-methylpropyl)amino)-5-fluoro-3′-(3-(2-fluorophenyl)ureido)biphenyl-2-carboxylic acid] are within 0.2 log units of each other in pIC50: 8.23 for the first, 8.40 for the second.

First: CC(C)CN(CC(C)C)c1ccc(-c2ccccc2-c2nnn[nH]2)cc1NC(=O)Nc1ccc(C#N)cc1F [Example 260]
Second: CCN(CC(C)(C)C)c1ccc(-c2ccccc2-c2nnn[nH]2)cc1NC(=O)Nc1ccc(C)cc1 [Example 110, 1-(4-(ethyl(neopentyl)amino)-2′-(1H-tetrazol-5-yl)biphenyl-3-yl)-3-p-tolylurea]
The pIC50 of the first is 0.79 log units higher: 8.19 for the first, 7.40 for the second. The first is the more potent here.

First: Cc1ccc(NC(=O)Nc2cc(-c3ccccc3C(=O)O)cc(F)c2N(CC(C)C)CC(C)C)cc1 [Example 6, 4′-(Diisobutylamino)-3′-fluoro-5′-(3-p-tolylureido)biphenyl-2-carboxylic acid]
Second: Cc1ccc(NC(=O)Nc2cc(-c3ccccc3C(=O)C(C#N)S(C)(=O)=O)ccc2N(CC(C)C)CC(C)C)cc1 (centres unmarked) [Example 96, 1-(2′-(2-cyano-2-(methylsulfonyl)acetyl)-4-(diisobutylamino)biphenyl-3-yl)-3-p-tolylurea]
The pIC50 of the first is 2.26 log units higher: 8.19 for the first, 5.93 for the second. The first is the more potent here.

Going from `Cc1ccc(NC(=O)Nc2cc(-c3ccccc3-c3nnn[nH]3)ccc2N2CC(C)CC(C)C2)cc1` (centres unmarked) [Example 235, 1-(4-(3,5-Dimethylpiperidin-1-yl)-2′-(1H-tetrazol-5-yl)-[1,1′-biphenyl]-3-yl)-3-(p-tolyl)urea] to `CCC1CCCCN1c1ccc(-c2ccccc2-c2nnn[nH]2)cc1NC(=O)Nc1ccc(C)cc1` (centres unmarked) [Example 114, 1-(4-(2-ethylpiperidin-1-yl)-2′-(1H-tetrazol-5-yl)biphenyl-3-yl)-3-p-tolylurea], the pIC50 rises from 6.10 to 6.80 (0.70 log units).

Compared with `O=C(Nc1ccccc1F)Nc1cc(-c2cc(F)ccc2C(=O)O)ccc1N(Cc1ccc(Cl)cc1)C1CCCCC1` [Example 470], `Cc1ccc(NC(=O)Nc2cc(-c3ccccc3C(=O)O)ccc2N(CC2CC2)C2CCCCC2)cc1` [Example 83, 4′-(cyclohexyl (cyclopropylmethyl)amino)-3′-(3-p-tolylureido)biphenyl-2-carboxylic acid] is 0.98 log units higher in pIC50: 6.72 for the first, 7.70 for the second. The second is the more potent here.

Going from `CCN(CC(C)(C)C)c1ccc(-c2ccccc2C(=O)O)cc1NC(=O)Nc1ccccc1F` [Example 108, 4′-(ethyl(neopentyl)amino)-3′-(3-(2-fluorophenyl)ureido) biphenyl-2-carboxylic acid] to `Cc1ccc(NC(=O)Nc2cc(-c3cc(F)ccc3C(=O)O)ccc2N(CC(C)C)CC(F)(F)F)cc1` [Example 476], the pIC50 rises from 6.60 to 6.85 (0.25 log units).

Compared with `O=C(Nc1ccc(F)nc1)Nc1cc(-c2ccccc2-c2nnn[nH]2)ccc1N1CCCc2ccccc21` [Example 365, 1-(4-(3,4-Dihydroquinolin-1(2H)-yl)-2′-(1H-tetrazol-5-yl)-[1,1′-biphenyl]-3-yl)-3-(6-fluoropyridin-3-yl)urea], `Cc1ccc(NC(=O)Nc2cc(-c3sccc3C(=O)O)ccc2N(CCC2CC2)CC(C)C)cc1` [Example 131, 2-(4-((2-cyclopropylethyl) (isobutyl)amino)-3-(3-p-tolylureido)phenyl) thiophene-3-carboxylic acid] is 2.00 log units higher in pIC50: 5.30 for the first, 7.30 for the second.
